In patent US11154563B2, “Immunoproteasome inhibitors” (Principia Biopharma Inc., priority 2017, dated 2021):

Columns and labels:
Format in all cases: biochemical
[1] = molecular target: immunoproteasome LPM2/β1i subunit (Homo sapiens, UniProt P28065+P40306); assay: Caliper-based proteasome enzymatic activity assay, LMP2; conditions: human recombinant immunoproteasome 0.3 nM, FAM-peptide substrate 1 μM, 2 h at rt
Method: A Caliper-based proteasome assay (Caliper Life Sciences, Hopkinton, Mass.) was used to measure inhibition of the immunoproteasome LMP7/B5i subunit, the immunoproteasome LPM2/β1i subunit, and the constitutive proteasome β5c unit for a compound of Formula (I). For LMP7 and β5c, serial dilutions of test compounds were incubated with either human recombinant immunoprotcasome or constitutive proteasome (0.3 nM enzyme) and a carboxyfluorescein (FAM)-labeled peptide substrate FAM-TYETFKSIMKKSPF-NH2 (1 μM) at it for 3 h. The reaction was then terminated with a buffer containing the known proteasome inhibitor carfilzomib at a concentration of 5 uM. For LMP2, serial dilutions of test compounds were incubated with human recombinant immunoproteasome proteasome (0.3 nM enzyme) and a carboxyfluorescein (FAM)-labeled peptide substrate FAM-[…]-NH2 (1 μM) at rt for 2 h. The reaction was then terminated with a buffer containing the known proteasome inhibitor ixazomib at a concentration of 6.7 uM. The reaction buffer was 20 mM Hepes pH 7.4, 0.01% bovine serum albumin, 0.015% SDS, 0.5 mM EDTA, 1%0/DMSO. The peptide cleavage reaction product was quantified on a Caliper LabChip 3000. Percent inhibition was calculated for each compound dilution and the concentration that produced 50% inhibition was calculated. This value is presented as the IC50.

[2] = molecular target: immunoproteasome LMP7/B5i subunit (Homo sapiens, UniProt P20618+P28062); assay: Caliper-based proteasome enzymatic activity assay, LMP7; conditions: human recombinant immunoproteasome 0.3 nM, FAM-peptide substrate 1 μM, 3 h at rt
In short: (§1)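 Recombinant human immunoproteasome or constitutive proteasome (0.3 nM) with 1 μM FAM-peptide in 20 mM Hepes pH 7.4, 0.015% SDS, 0.01% BSA; LMP7/β5c ran 3 h at rt and were stopped with 5 uM carfilzomib, LMP2 ran 2 h and was stopped with 6.7 uM ixazomib. Cleaved product quantified by microfluidic separation; IC50 from percent inhibition.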

[3] = molecular target: constitutive proteasome β5c unit (Homo sapiens, UniProt P20618+P28074); assay: Caliper-based proteasome enzymatic activity assay, β5c; conditions: human recombinant constitutive proteasome 0.3 nM, FAM-peptide substrate 1 μM, 3 h at rt; read-out: β5c subunit IC50
In short: as §1

Row | SMILES | IC50 [1] | IC50 [2] | IC50 [3]
1 | CC(C)(C)C=C(C#N)C(=O)N1C[C@H]2C[C@H]2[C@H]1COC(=O)N[C@@H](Cc1ccccc1)B(O)O [Example 22, ((R)-1-(((((1R,2S,5S)-3-(2-cyano-4,4-dimethylpent-2-enoyl)-3-azabicyclo[3.1.0]hexan-2-yl)methoxy)carbonyl)amino)-2-phenylethyl)boronic acid] | > 5000 nM | 1.8 nM | > 5000 nM
2 | CC(C)(C=C(C#N)C(=O)N1CCC[C@@H]1COC(=O)N[C@@H](Cc1ccccc1)B(O)O)N1CCOCC1 [Example 23, ((R)-1-(((((R)-1-(2-cyano-4-methyl-4-morpholinopent-2-enoyl)pyrrolidin-2-yl)methoxy)carbonyl)amino)-2-phenylethyl)boronic acid] | > 5000 nM | 2.6 nM | > 5000 nM
3 | Cc1ccc(C[C@H](NC(=O)OC[C@H]2CCCCN2C(=O)C(C#N)=CC(C)(C)C)B(O)O)cc1 [Example 24, ((R)-1-(((((R)-1-(2-cyano-4,4-dimethylpent-2-enoyl)piperidin-2-yl)methoxy)carbonyl)amino)-2-(p-tolyl)ethyl)boronic acid] | > 5000 nM | 3.7 nM | 1390 nM
4 | CC(C)(C)C=C(C#N)C(=O)N1CCCC[C@@H]1COC(=O)N[C@@H](Cc1coc2ccccc12)B(O)O [Example 25, ((R)-2-(benzofuran-3-yl)-1-(((((R)-1-(2-cyano-4,4-dimethylpent-2-enoyl)piperidin-2-yl)methoxy)carbonyl)amino)ethyl)boronic acid] | > 5000 nM | 0.6 nM | 172 nM
5 | CC(C)(C)C=C(C#N)C(=O)N1C[C@@H]2C[C@@H]2[C@@H]1COC(=O)N[C@@H](Cc1ccccc1)B(O)O [Example 26] | > 5000 nM | 1.2 nM | 2110 nM
6 | CC(C)(C=C(C#N)C(=O)N1CCCC[C@@H]1COC(=O)N[C@@H](Cc1ccccc1)B(O)O)N1CCCC1 [Example 27] | > 5000 nM | 11 nM | 3480 nM
7 | CC(C)(C=C(C#N)C(=O)N1CCCC[C@@H]1COC(=O)N[C@@H](Cc1ccccc1)B(O)O)N1CCC(F)(F)C1 [Example 28, ((R)-1-(((((R)-1-(2-cyano-4-(3,3-difluoropyrrolidin-1-yl)-4-methylpent-2-enoyl)piperidin-2-yl)methoxy)carbonyl)amino)-2-phenylethyl)boronic acid] | > 5000 nM | 1.5 nM | 2190 nM
8 | CC(C)(C=C(C#N)C(=O)N1CCCC[C@@H]1COC(=O)N[C@@H](Cc1ccccc1)B(O)O)N1CCOCC1 [Example 29, ((R)-1-(((((R)-1-(2-cyano-4-methyl-4-morpholinopent-2-enoyl)piperidin-2-yl)methoxy)carbonyl)amino)-2-phenylethyl)boronic acid] | > 5000 nM | 2.9 nM | 3400 nM
9 | CC(C)(C=C(C#N)C(=O)N1CCCC[C@@H]1COC(=O)N[C@@H](Cc1ccccc1)B(O)O)N1CCCCC1 [Example 30, ((R)-1-(((((R)-1-(2-cyano-4-methyl-4-(piperidin-1-yl)pent-2-enoyl)piperidin-2-yl)methoxy)carbonyl)amino)-2-phenylethyl)boronic acid] | > 5000 nM | 16 nM | > 5000 nM
10 | CC(C)(C=C(C#N)C(=O)N1CCCC[C@@H]1COC(=O)N[C@@H](Cc1ccccc1)B(O)O)N1CCC(F)(F)CC1 [Example 31, ((R)-1-(((((R)-1-(2-cyano-4-(4,4-difluoropiperidin-1-yl)-4-methylpent-2-enoyl)piperidin-2-yl)methoxy)carbonyl)amino)-2-phenylethyl)boronic acid] | > 5000 nM | 12 nM | 2390 nM
11 | Cc1ccc(C[C@H](NC(=O)OC[C@H]2CCCCCN2C(=O)C(C#N)=CC(C)(C)C)B(O)O)cc1 [Example 32, ((R)-1-(((((R)-1-(2-cyano-4,4-dimethylpent-2-enoyl)azepan-2-yl)methoxy)carbonyl)amino)-2-(p-tolyl)ethyl)boronic acid] | > 5000 nM | 9.2 nM | 713 nM
12 | Cc1ccc(C[C@H](NC(=O)OC[C@@H]2CCCCCN2C(=O)C(C#N)=CC(C)(C)C)B(O)O)cc1 [Example 33, ((R)-1-(((((S)-1-(2-cyano-4,4-dimethylpent-2-enoyl)azepan-2-yl)methoxy)carbonyl)amino)-2-(p-tolyl)ethyl)boronic acid] | > 5000 nM | 41 nM | > 5000 nM
13 | CC(C)(C=C(C#N)C(=O)N1CCC[C@@H]1COC(=O)N[C@@H](Cc1ccccc1)B(O)O)N1CCCC1 [Example 34, ((R)-1-(((((R)-1-(2-cyano-4-methyl-4-(pyrrolidin-1-yl)pent-2-enoyl)pyrrolidin-2-yl)methoxy)carbonyl)amino)-2-phenylethyl)boronic acid] | > 5000 nM | 14 nM | 3370 nM
14 | CC(C)(C=C(C#N)C(=O)N1CCC[C@@H]1COC(=O)N[C@@H](Cc1ccccc1)B(O)O)N1CCC(F)(F)C1 [Example 35, ((R)-1-(((((R)-1-(2-cyano-4-(3,3-difluoropyrrolidin-1-yl)-4-methylpent-2-enoyl)pyrrolidin-2-yl)methoxy)carbonyl)amino)-2-phenylethyl)boronic acid] | > 5000 nM | 2 nM | 3020 nM
15 | C=CC(=O)N1CCC[C@@H]1COC(=O)N[C@@H](Cc1coc2ccccc12)B(O)O [Example 36, ((R)-1-(((((R)-1-acryloylpyrrolidin-2-yl)methoxy)carbonyl)amino)-2-(benzofuran-3-yl)ethyl)boronic acid] | > 5000 nM | 6.9 nM | 397 nM
16 | CC(C)(C)C=C(C#N)C(=O)N1C[C@H]2C[C@H]2[C@@H]1COC(=O)N[C@@H](Cc1ccccc1)B(O)O [Example 37, ((R)-1-(((((1R,2R,5S)-3-(2-cyano-4,4-dimethylpent-2-enoyl)-3-azabicyclo[3.1.0]hexan-2-yl)methoxy)carbonyl)amino)-2-phenylethyl)boronic acid] | > 5000 nM | 4 nM | 1960 nM
17 | CC(C)(C)C=C(C#N)C(=O)N1C[C@@H]2C[C@@H]2[C@H]1COC(=O)N[C@@H](Cc1ccccc1)B(O)O [Example 38] | > 5000 nM | 7 nM | > 5000 nM
18 | CC(C)(C)C=C(C#N)C(=O)N1CCC[C@@H]1COC(=O)N[C@@H](Cc1coc2ccccc12)B(O)O [Example 39, ((R)-2-(benzofuran-3-yl)-1-(((((R)-1-(2-cyano-4,4-dimethylpent-2-enoyl)pyrrolidin-2-yl)methoxy)carbonyl)amino)ethyl)boronic acid] | > 5000 nM | 1.2 nM | 187 nM
19 | CC(C)(C=C(C#N)C(=O)N1CCC[C@@H]1COC(=O)N[C@@H](Cc1coc2ccccc12)B(O)O)N1CCOCC1 [Example 40, ((R)-2-(benzofuran-3-yl)-1-(((((R)-(2-cyano-4-methyl-4-morpholinopent-2-enoyl)pyrrolidin-2-yl)methoxy)carbonyl)amino)ethyl)boronic acid] | > 5000 nM | 1.3 nM | 228 nM
20 | Cc1ccc(C[C@H](NC(=O)OC[C@H]2CCCCN2C(=O)C(C#N)=CC(C)(C)N2CCC(F)(F)C2)B(O)O)cc1 [Example 41, ((R)-1-(((((R)-1-(2-cyano-4-(3,3-difluoropyrrolidin-1-yl)-4-methylpent-2-enoyl)piperidin-2-yl)methoxy)carbonyl)amino)-2-(p-tolyl)ethyl)boronic acid] | > 5000 nM | 1.6 nM | 518 nM
